Results from patent US6569903B2, “Ophthalmic compositions” (Rohto Pharmaceutical Co., Ltd., priority 1999, dated 2003).
Counter-ions that a name gives are not always drawn.

Columns and labels:
[1] = target: T1, β2 adrenergic receptor (Cavia porcellus, UniProt Q8K4Z4); settings: cited from earlier work
T1 construct: a relaxation of smooth muscle (EC50) in an excised trachea or uterus; from tissue; host or cells: excised trachea (tracheal smooth muscle)

[2] = system: Japanese albino strain male rabbits; experiment: Tear secretion promoting action of eye drops (Test Example 1); type: in vivo, rabbit; settings: 0.1 w/v % eye drops, 50 μl instilled into one eye, vs basal secretion amount
Protocol: Using Japanese albino strain male rabbits, eye drops containing adrenergic β receptor agonists were examined for their tear secretion promoting actions.
Prior to use, each adrenergic β receptor agonist was dissolved in a phosphate buffer solution to prepare a 0.1 w/v % solution, which was adjusted to the pH ranging 6.0 to 7.5. Compounds used in this experiment are shown below. The phosphate buffer solution served as control.
Six rabbits (12 weeks old, weighing 2.0 to 2.5 kg) were used in each group. A test solution (50 μl) was instilled into one eye of the rabbit, and amounts of tears secreted were measured for 5 minutes from 15 to 10 min prior to the instillation of the test solution, for 5 minutes from 5 to 10 min and for 5 minutes from 20 to 25 min after the instillation, three times in total, by the following method. A local anesthetic, 0.4 w/v % oxybuprocaine hydrochloride solution (Santen Pharmaceutical) (50 μl) was instilled into one eye of the rabbit, 5 min later the remaining eye drops and tears were once soaked up using a water absorbing paper, and then a previously weighed filter paper (5×35 mm) was inserted in the lower eyelid area. Five minutes later, the filter paper was recovered, weighed and the increment in weight was taken as the amount of secreted tears. With the amount of secreted tears prior to the instillation of a test solution taken as a basal secretion amount, ratios of increases in the amount of secreted tears to the basal secretion amount were used as the rate of increase in the tear secretion (%).

[3] = system: Japanese albino strain male rabbits; experiment: Tear protein secretion promoting action of eye drops (Test Example 2); type: in vivo, rabbit; settings: 0.1 w/v % eye drops, 50 μl instilled into one eye, vs basal concentration
Protocol: Using Japanese albino strain male rabbits, eye drops containing adrenergic β receptor agonists were examined for their actions to promote the tear protein secretion.
Prior to use, each adrenergic β receptor agonist was dissolved in a phosphate buffer solution to prepare 0.1 w/v % solution, and adjusted to the pH ranging 6.0 to 7.5. Compounds and compositions of eye drops used in this experiment are shown below using the phosphate buffer solution as control.
Six rabbits (12 weeks old, weighing 2.0 to 2.5 kg) were used in each group. A test solution (50 μl) was instilled into one eye of the rabbit, and protein concentrations in tears were measured for 5 minutes from 15 to 10 min prior to the instillation of the test solution, for 5 minutes from 5 to 10 min and for 5 minutes from 20 to 25 min after the instillation, three times in total, using the following method. A local anesthetic, 0.4 w/v % oxybuprocaine hydrochloride solution (Santen Pharmaceutical) (50 μl) was instilled into one eye of the rabbit, 5 min later the remaining eye drops and tears were once soaked up using a water absorbing paper, and then a previously weighed filter paper (5×35 mm) was inserted in the lower eyelid area. Five minutes later, the filter paper was recovered, weighed and the increment in weight was taken as the amount of secreted tears. Immediately after measuring the amount of secreted tears, the filter paper thus recovered was placed in a 1.5-ml test tube, 1 ml of the phosphate buffer solution (pH 7.4) was added thereto, and the test tube was stirred for 30 s. After the removal of the filter paper followed by the centrifugation of the solution at 3,000 rpm for 5 min, a stain reagent of Bio-Rad protein assay kit was added to the supernatant to measure the amount of protein and calculate the total amount of protein in the filter paper. From the total amount of protein and that of secreted tears, the protein concentration in tears was calculated.
With the protein concentration in tears prior to the instillation of a test solution taken as a basal protein concentration, ratios of increases in respective protein concentrations relative to the basal protein concentration were used as the rate of increase in protein concentration in tears (%)

[4] = system: Japanese albino strain male rabbits; experiment: Tear secretion after systemic (ear vein) administration (Test Example 3); type: in vivo, rabbit; settings: for Rate of increase in tear secretion (%): 50 μg/rabbit into the ear vein
Protocol: (§1) Using Japanese albino strain male rabbits, injections containing selective adrenergic β2 receptor agonists were examined for their actions to promote the tear secretion and the protein secretion in tears.
(§2) Prior to use, clenbuterol hydrochloride was dissolved in a physiological saline (concentration 50 μg/ml), and adjusted to the pH in the range 6.0 to 7.5. The physiological saline was used as control.
(§3) Six rabbits (11 to 12 weeks old, weighing 2.4 to 2.6 kg) were used in each group. The test solution (50 μg/rabbit) was administered into the ear vein, and amounts of tears secreted were measured 15 to 10 min prior to the administration of the test solution, 5 to 10 min, 20 to 25 min, 40 to 45 min, 60 to 65 min and 120 to 125 min after the administration, six times in total, by the following method. A local anesthetic, 0.4 w/v % oxybuprocaine hydrochloride solution (Santen Pharmaceutical) (50 μl) was instilled into one eye of a rabbit, 5 min later the remaining eye drops and tears were once soaked up using a water absorbing paper, and then a previously weighed filter paper (5×35 mm) was inserted in the lower eyelid area. Five minutes later, the filter paper was recovered, weighed and the increment in weight was taken as the amount of secreted tears. After measuring the amount of secreted tears, the filter paper thus recovered was placed in a 1.5-ml test tube, 1 ml of the phosphate buffer solution (pH 7.4) was added thereto, and the test tube was vortexed for 30 s. After the removal of the filter paper, followed by the centrifugation at 3,000 rpm for 5 min, a stain reagent of Bio-Rad protein assay kit was added to the supernatant to measure the amount of protein and calculate a total amount of protein in the filter paper. From the total amount of protein and that of secreted tears, the protein concentration in tears was calculated. With the amount of secreted tears prior to the administration of a test solution taken as the basal secretion amount, ratios of increases in the secreted tears to the basal secretion amount were used as the rate of increase in the tear secretion (%). In addition, with the protein concentration in tears prior to the administration of a test solution taken as the basal protein concentration, ratios of increases in respective protein concentrations relative to the basal protein concentration were used as the rate of increase in protein concentration in tears (%).

[5] = system: Japanese albino strain male rabbits; experiment: Protein concentration in tears after systemic (ear vein) administration (Test Example 3); type: in vivo, rabbit; settings: for Rate of increase in protein concentration in tears (%): 50 μg/rabbit into the ear vein
Protocol: as §1, §2, §3

[6] = for 5 minutes from 5 to 10 min after instillation
[7] = for 5 minutes from 20 to 25 min after instillation
[8] = 120-125 min after administration
[9] = intravenous administration, result in words

T1 sequence (Q8K4Z4 whole entry): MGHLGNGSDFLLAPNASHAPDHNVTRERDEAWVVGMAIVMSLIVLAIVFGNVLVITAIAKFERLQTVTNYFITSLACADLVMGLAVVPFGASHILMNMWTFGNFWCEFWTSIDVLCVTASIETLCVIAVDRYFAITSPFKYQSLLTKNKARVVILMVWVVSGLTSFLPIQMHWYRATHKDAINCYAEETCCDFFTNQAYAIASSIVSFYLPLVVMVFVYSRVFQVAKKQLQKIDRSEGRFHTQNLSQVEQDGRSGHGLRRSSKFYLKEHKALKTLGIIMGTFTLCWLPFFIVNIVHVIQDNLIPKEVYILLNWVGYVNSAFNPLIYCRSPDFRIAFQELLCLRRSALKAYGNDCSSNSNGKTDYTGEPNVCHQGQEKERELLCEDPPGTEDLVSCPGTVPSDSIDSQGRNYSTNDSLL

Compound | Relative specificity to the tracheal smooth muscle, higher than that of isoproterenol [1] | Rate of increase in tear secretion [2, 6] [%] | Rate of increase in tear secretion [2, 7] [%] | Rate of increase in tear protein concentration [3, 6] [%] | Rate of increase in tear protein concentration [3, 7] [%] | also measured
CC(Cc1ccc(O)cc1)NCC(O)c1cc(O)cc(O)c1 (stereo not drawn) [Fenoterol hydrobromide, fenoterol hydrobromide] | about 20 times | 144 | 49 | 16 | 43 | 
CCC(NC(C)C)C(O)c1ccc(O)c2[nH]c(=O)ccc12 (stereo not drawn) [Procaterol hydrochloride, procaterol hydrochloride] | about 2000 times | 118 | 43 | 76 | 109 | 
CC(C)(C)NCC(O)c1cc(Cl)c(N)c(Cl)c1 (stereo not drawn) [Clenbuterol hydrochloride, clenbuterol hydrochloride] | about 7000 times | 36 | 29 | 16 | 53 | Rate of increase in tear secretion (%) ([4]; 5-10 min after administration): 155%; Rate of increase in tear secretion (%) ([4]; 20-25 min after administration): 146%; Rate of increase in tear secretion (%) ([4]; 40-45 min after administration): 133%; Rate of increase in tear secretion (%) ([4]; 60-65 min after administration): 68%; Rate of increase in tear secretion (%) [4, 8]: 58%; Amount of tear secretion [4, 9]: significant increases; Rate of increase in protein concentration in tears (%) ([5]; 5-10 min after administration): 139%; Rate of increase in protein concentration in tears (%) ([5]; 20-25 min after administration): 148%; Rate of increase in protein concentration in tears (%) ([5]; 40-45 min after administration): 179%; Rate of increase in protein concentration in tears (%) ([5]; 60-65 min after administration): 188%; Rate of increase in protein concentration in tears (%) [5, 8]: 171%; Protein concentration in tears [5, 9]: significant increases
CC(C)(C)NCC(O)c1ccc(O)c(CO)c1 (stereo not drawn) [salbutamol] | about 30 times |  |  |  |  | 
CC(CCc1ccc(O)cc1)NCCc1ccc(O)c(O)c1 (stereo not drawn) [Dobutamine, dobutamine hydrochloride] |  | 8 | −29 | 9 | −19 | 
CC(C)(C)NCC(O)c1ccc(O)c(CO)n1 (stereo not drawn) [pirbuterol] | about 260 times |  |  |  |  | 
